Experimental data reported in publication PMC8302598, “Rapid discovery of self-assembling peptides with one-bead one-compound peptide library” (Nature Communications, 2021).
Entries after “also recorded” stand apart in the source; their conditions may differ.

Legend:
Format in all cases: cell-based
HeLa cells [1] = assay: Cellular uptake and distribution of FITC-labeled peptide assemblies (fluorescence/confocal microscopy); conditions: 40 μM (methods: 50 μM); for Cellular uptake: HeLa cells, 3% of peptide N-terminally FITC-labeled, 4 h incubation, fluorescence microscope; for Cellular distribution of peptide assemblies: live HeLa cells, 3% FITC-labeled peptide, 4 h, Lyso-Tracker Red, Hoechst
Method: (§1) Finally, we examined the biological effects and cellular distribution of the eight self-assembling peptides on HeLa cells. […] In order to observe the nanomaterials under fluorescent microscopy, each peptide preparation was spiked with 3% of the same peptide N-terminally labeled with FITC, and then added to HeLa cells at a final concentration of 40 μM. […] After 4 h of incubation with the peptide assemblies, the cells were observed under a fluorescent microscope (Figs. 4c, d and Supplementary 22). […] It is important to note that LDFPI nanoparticle was small (8 nm diameter) even after 4 h incubation. Its small size may in part explain its ability to pass through the nuclear pore complexes[32],[33]. […] To evaluate the cell uptake mechanism of peptide assemblies (YFTEF, ISDNL, and FGFDP) into the cytoplasm, we treated the cells at 4 °C or with various endocytosis inhibitors (Supplementary Fig. 23).
Hela cell line was purchased from cell culture center of Institute of Basic Medical Sciences, Chinese Academy of Medical Sciences (Beijing, China). Hela cells cultured with pentapeptide nanomaterials (50 μM) were imaged using a Zeiss LSM710 confocal laser scanning microscope (Jena, Germany). The Hela cells were seeded in complete DMEM in a humidified atmosphere with 5% CO2 and then cultured at 37 °C overnight. Then, 1 mL of serum-free fresh medium containing pentapeptide (50 μM) was used for replacing the medium, and the cells were cultured for 4 h and washed with PBS three times before being imaged using a Zeiss LSM710 confocal laser scanning microscope with a 40× objective lens. The cell lines had been authenticated utilizing short tandem repeat DNA profiling. All cells were tested negative for cross-contamination of other human cells and mycoplasma contamination.
Supplementary Figure 22. Confocal microscopy of HeLa cells after incubation with FITC-labeled pentapeptide assemblies (from left to right: FT ISD, IT SVV, Y FT E F, ISDNL , L D FP I, FAG FT, FG FDP, FFVD F ) for 4 h; peptide concentration used was 50 μM. 3% of the assembled peptides was N-terminally labeled with FITC.
Supplementary Figure 23 . Cell uptake pathway analysis for FITC-labeled pentapeptide assemblies YFTEF, ISDNL and […]. a) CLSM images of HeLa cells incubated with pentapeptides (50 μ M ) at di fferent temperatures (37 or 4 °C) and in the presence of various endocytosis inhibitors, such as amiloride (2 mM), M-β-CD (5 mM), and chlorpromazine (50 μM). The scale bar is 10 μm. b) Relevant quantitative analysis of images from ‘a’. 3% of the assembled peptides was N-terminally labeled with FITC, E rror ba rs represent Standard Deviation (n=3). […]

HeLa cells [2] = assay: CCK-8 cell viability assay; conditions: incubation 24 and 72 h, n=3
Method: as §1
TentaGel S Resin was purchased from Rapp Polymere (Germany, loading 0.31 mmol/g). 9-Fluorenylmethoxycarbonyl (Fmoc)-protected amino acids, 2-(1H-benzotriazole-1-yl)-1,1,3,3- tetramethyluronium hexafluoro-phosphate (HBTU), and Wang resin were obtained from GL Biochem (China). Trifluoroacetic acid (TFA), fluorescein isothiocyanate (FITC), N-methyl morpholine (NMM), piperidine, and N,N′-dimethylformamide (DMF) were all from Beijing Chemical Plant (China). 1,2-Ethanedithiol (EDT) was purchased from Alfa Aesar (USA). Dimethyl sulfoxide (DMSO) was purchased from Aldrich Chemical Co. and used without further purification. Cyanogen bromide (CNBr) was from J&K Chemical (China). The HeLa cell lines were received from the Cell Culture Center of the Institute of Basic Medical Sciences, Chinese Academy of Medical Sciences (Beijing, China). Cell culture medium and fetal bovine serum were from WisentInc (Multicell, WisentInc, St. Bruno. The cell counting kit-8 assay (CCK-8) (Beyotime Institute of Biotechnology, China) was used. Hela cells were maintained Dulbecco’s modified eagle’s medium (DMEM) with 10% fetal bovine serum and 1% penicillin. All cells were cultured in a humidified atmosphere containing 5% CO2 at 37 °C.
Supplementary Figure 21 . a-h. CCK-8 cell viability assay for 8 pentapeptides (FTISD, ITSVV, YFTEF, ISDNL , LDFPI, FAGFT,
FGFDP, FFVDF) after incubation with HeLa cells for 24 and 72 h.
Standard Deviatio n (n=3).
(§2) (1 picture or pasted object on this page, not shown here)

HeLa cells [3] = assay: Cell uptake efficiency by fluorescence of lysed cells; conditions: HeLa cells incubated with peptides 4 h, fluorescence quantified
Method: and FGFDP entered lysosome and then escaped. The ISDNL escaped in 4 h, and FGFDP escaped between 1-2 h. Both ISDNL and FGFDP had capability of lysosomal escape, which may be useful for gene or nucleic acid delivery, as implied by the reviewer.
Figure R10. a. Time-dependent CLSM images for monitoring and quantitatively analyzing HeLa cells incubated with 50 μM pentapeptide nano-assembly of YFTEF, ISDNL, and FGFDP, b. corresponding co-localization analysis of experiment shown in “a”.
To confirm how efficient the peptides (YFTEF, ISDNL, and FGFDP) enter living cells, HeLa cells were incubated with peptides for 4 h, the cells were then lysed and fluorescence quantified to calculate the […]
Table R2. Cell uptake efficiency of peptides. […]
To elucidate the cell uptake pathways of pentapeptides, we quantified the fluorescence intensity of the HeLa cells after incubation with FITC-labeled nano-assembly of YFTEF, ISDNL, FAGFT, FGFDP, at 37 and 4 °C, respectively (3% of the peptide assembly were N-terminally labeled with FITC for tracking). There were nearly no uptake of pentapeptides by HeLa cells at 4 °C, which is consistent with mechanism of cell uptake by endocytosis. We have also examined the effects of cell uptake by various endocytosis inhibitors: amiloride (2 mM, inhibitor of endocytosis), M-β-CD (5 mM, inhibitor of caveolae-dependent endocytosis), and chlorpromazine (50 μM, inhibitor of clathrin-dependent endocytosis).
as §2

Row | Substance | Cellular uptake (HeLa cells [1]) | Cellular distribution of peptide assemblies (HeLa cells [1]) | Cell toxicity (CCK-8 cell viability) (HeLa cells [2]) | Cell uptake efficiency (HeLa cells [3])
1 | LDFPI [self-assembling pentapeptide identified from OBOC library] | Obvious cellular uptake | localized to the nucleus and perinuclear areas | No cell toxicity was observed | 
2 | FAGFT [self-assembling pentapeptide identified from OBOC library] | Obvious cellular uptake | mainly confine to the cytoplasm | No cell toxicity was observed | 
3 | ITSVV [self-assembling pentapeptide identified from OBOC library] |  | localized on the cell membrane; also recorded: staining of the cell membrane and minor staining of the cytoplasm | No cell toxicity was observed | 
4 | FTISD [self-assembling pentapeptide identified from OBOC library] |  | stained both the cell membrane and cytoplasm | No cell toxicity was observed | 
5 | YFTEF [self-assembling pentapeptide identified from OBOC library] | Obvious cellular uptake | distributed throughout the cytoplasm but not the nucleus | No cell toxicity was observed | 3.9%
6 | ISDNL [self-assembling pentapeptide identified from OBOC library] | Obvious cellular uptake | distributed inside the lysosomes throughout the cytoplasm; also recorded: distribute only to the cytoplasm, in granular forms | No cell toxicity was observed | 2.2%
7 | FFVDF [self-assembling pentapeptide identified from OBOC library, forms nanofibers] |  | formed aggregates outside the cell; also recorded: formed some fluorescent aggregates outside the cells | No cell toxicity was observed | 
8 | FGFDP [self-assembling pentapeptide identified from OBOC library] | Obvious cellular uptake | distribute only to the cytoplasm, in granular forms | No cell toxicity was observed | 4.8%
